In test [1] the test system is MCF-7 human breast cancer cells. Kind of test: CELLTITER-GLO luminescent cell viability assay. It counts as cell-based. Conditions: MCF7, 192 h, MCF-7 cells, 8 days, read-out: EC50 (Effect on Cell Viability). Here is the method: A CELLTITER-GLO luminescent cell viability assay was carried out using MCF-7 human breast cancer cells under the normal growth condition. The MCF-7 human breast cancer cells were grown at 37° C. in a 5% CO2 humidified incubator in EMEM, supplemented 10% FBS, 0.01 mg/mL bovine insulin. The cells were seeded at a 3,000 cells/well in a 96-well tissue culture plate. The cells were allowed to adhere overnight in the incubator. A compound (5 μL) in a medium at a predetermined concentration. After the cells was incubated at 37° C. for 8 days, a CELLTITER-GLO detection solution (100 μL) was added. The cells were mixed on an orbital shaker for 5 min and then incubated for additional 10 min. The plate was read with an ENVISION reader. The results are summarized in Table 2, where the symbol “+++” represents a value no greater than 1 μM, the symbol “++” represents a value greater than 1 μM but no greater than 10 μM, and the symbol “+” represents a value greater than 10 μM.

Another test addresses CDK4/cyclin D1 (Homo sapiens (Human), UniProt P11802). Kind of test: CDK4 Caliper Mobility Shift assay. Format: biochemical. The protocol: (§1) A Caliper Mobility Shift assay was used to determine the inhibitory activities of a compound against CDK4/cyclin D1 and CDK6/cyclin D1 in their respective kinase buffers (CDK4: 20 mM HEPES, pH 7.5, and 0.01% Triton X-100; CDK6: 50 mM HEPES, pH 7.5, and 0.0015% BRIJ-35). The CDK4/cyclin D1 and CDK6/cyclin D1 were obtained from PROQINASE and CARNA, respectively. A FAM-labeled peptide was obtained from GL.
(§2) The compound at predetermined concentrations was pre-incubated with CDK4/cyclin D1 or CDK6/cyclin D1 in a 384-well microplate at room temperature for 10 min. The FAM-labeled peptide and ATP were subsequently added to initiate the kinase reactions. The final enzyme concentrations were 15 nM for CDK4 and 7.5 nM for CDK6. The final ATP concentrations were […] for CDK4 and […] for CDK6. The microplate was allowed to incubate at 28° C. The kinase reactions were stopped by adding a stop buffer (100 mM HEPES, pH 7.5, 0.012% BRIJ-35, 0.2% Coating Reagent 3 (Caliper Life Sciences), and […]). Conversion data were recorded and utilized to calculate the percent inhibition values for each compound and an IC50 value was then determined. The results are summarized in Table 1, where the symbol “***” represents a value no greater than 200 nM, the symbol “**” represents a value greater than 200 nM but no greater than 500 nM, and the symbol “*” represents a value greater than 500 nM.

Another test addresses CDK6/cyclin D1 (Homo sapiens (Human), UniProt Q00534). Briefly: CDK6 Caliper Mobility Shift assay. It counts as biochemical. Here is the method: as §1, §2

The structures appear in SMILES notation. pEC50, pIC50: −log10 of the molar value. Where only a bound is given, the exact number is not on record here.

Sequence of CDK6/cyclin D1 (Q00534 whole entry): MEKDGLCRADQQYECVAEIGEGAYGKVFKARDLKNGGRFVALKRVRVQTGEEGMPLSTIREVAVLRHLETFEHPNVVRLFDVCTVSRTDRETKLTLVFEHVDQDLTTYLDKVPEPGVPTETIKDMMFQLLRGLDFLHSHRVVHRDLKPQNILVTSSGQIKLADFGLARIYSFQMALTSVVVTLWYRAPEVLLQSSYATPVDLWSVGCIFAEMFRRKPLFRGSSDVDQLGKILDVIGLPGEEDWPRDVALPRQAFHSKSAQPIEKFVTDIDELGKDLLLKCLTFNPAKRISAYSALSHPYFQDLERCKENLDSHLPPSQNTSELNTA
Sequence of CDK6/cyclin D1 (P24385 whole entry partner): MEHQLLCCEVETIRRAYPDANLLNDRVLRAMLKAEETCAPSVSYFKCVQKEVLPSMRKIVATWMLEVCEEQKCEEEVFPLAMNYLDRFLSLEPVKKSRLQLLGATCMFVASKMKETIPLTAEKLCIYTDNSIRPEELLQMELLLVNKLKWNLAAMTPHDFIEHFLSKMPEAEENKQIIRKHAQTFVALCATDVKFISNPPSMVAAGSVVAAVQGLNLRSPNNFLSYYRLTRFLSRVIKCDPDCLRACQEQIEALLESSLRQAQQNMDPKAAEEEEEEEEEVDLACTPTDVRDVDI
Sequence of CDK4/cyclin D1 (P11802 whole entry): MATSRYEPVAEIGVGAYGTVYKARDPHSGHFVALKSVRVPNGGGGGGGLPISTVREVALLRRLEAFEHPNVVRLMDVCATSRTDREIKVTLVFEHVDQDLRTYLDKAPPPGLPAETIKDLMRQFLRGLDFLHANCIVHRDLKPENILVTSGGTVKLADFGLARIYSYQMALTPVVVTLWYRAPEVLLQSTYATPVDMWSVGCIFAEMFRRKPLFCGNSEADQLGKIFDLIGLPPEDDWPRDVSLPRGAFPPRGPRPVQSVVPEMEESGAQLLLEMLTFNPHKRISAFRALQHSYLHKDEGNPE
Sequence of CDK4/cyclin D1 (P24385 whole entry partner): as the sequence (P24385 whole entry partner) above

With `CCCC(=O)NS(=O)(=O)N1CCN(c2ccc(Nc3ncc4c(C)c(C(C)=O)c(=O)n(C5CCCC5)c4n3)nc2)CC1` [Compound A37, N-((4-(6-((6-Acetyl-8-cyclopentyl-5-methyl-7-oxo-7,8-dihydropyrido[2,3-d]-pyrimidin-2-yl)amino)pyridin-3-yl)piperazin-1-yl)sulfonyl)butyramide], the negative-log EC50 (pEC50) in test [1] is 5.00 to 6.00. For the same compound, the pIC50 at CDK4/cyclin D1 and at CDK6/cyclin D1 was 6.30 to 6.70 in each case.
In the case of `CC(=O)c1c(C)c2cnc(Nc3ccc(N4CCN(S(=O)(=O)NC(=O)C5CCC5)CC4)cn3)nc2n(C2CCCC2)c1=O` [Compound A41, N-((4-(6-((6-Acetyl-8-cyclopentyl-5-methyl-7-oxo-7,8-dihydropyrido[2,3-d]-pyrimidin-2-yl)amino)pyridin-3-yl)piperazin-1-yl)sulfonyl)cyclobutanecarboxamide], the pEC50 in test [1] was 5.00 to 6.00. Also, the pIC50 on CDK4/cyclin D1 and at CDK6/cyclin D1 was 6.30 to 6.70 each time.
Turning to `CC(=O)c1c(C)c2cnc(Nc3ccc(N4CCN(S(=O)(=O)NCCO)CC4)cn3)nc2n(C2CCCC2)c1=O` [Compound A42, 4-(6-((6-Acetyl-8-cyclopentyl-5-methyl-7-oxo-7,8-dihydropyrido[2,3-d]-pyrimidin-2-yl)amino)pyridin-3-yl)-N-(2-hydroxyethyl)piperazine-1-sulfonamide], the pEC50 in test [1] is 5.00 to 6.00. The pIC50 on CDK4/cyclin D1 and on CDK6/cyclin D1 was ≥ 6.70 in each case.
Consider `COCCNS(=O)(=O)N1CCN(c2ccc(Nc3ncc4c(C)c(C(C)=O)c(=O)n(C5CCCC5)c4n3)nc2)CC1` [Compound A43, 4-(6-((6-Acetyl-8-cyclopentyl-5-methyl-7-oxo-7,8-dihydropyrido[2,3-d]-pyrimidin-2-yl)amino)pyridin-3-yl)-N-(2-methoxyethyl)piperazine-1-sulfonamide], for which the pEC50 in test [1] was 5.00 to 6.00. The negative logarithm of the IC50 (pIC50) on CDK4/cyclin D1 and at CDK6/cyclin D1 was ≥ 6.70 in each case.
Regarding `CC(=O)c1c(C)c2cnc(Nc3ccc(N4CCN(S(=O)(=O)N[C@H](C(=O)O)C(C)C)CC4)cn3)nc2n(C2CCCC2)c1=O` [Compound A45, ((4-(6-((6-Acetyl-8-cyclopentyl-5-methyl-7-oxo-7,8-dihydropyrido[2,3-d]-pyrimidin-2-yl)amino)pyridin-3-yl)piperazin-1-yl)sulfonyl)-L-valine], in test [1], the negative logarithm of the EC50 (pEC50) was 5.00 to 6.00. The negative-log IC50 (pIC50) on CDK4/cyclin D1 and on CDK6/cyclin D1 was ≥ 6.70 in each case.
Consider `CCNS(=O)(=O)N1CCN(c2ccc(Nc3ncc4c(C)c(C(C)=O)c(=O)n(C5CCCC5)c4n3)nc2)CC1` [Compound A47, 4-(6-((6-Acetyl-8-cyclopentyl-5-methyl-7-oxo-7,8-dihydropyrido[2,3-d]-pyrimidin-2-yl)amino)pyridin-3-yl)-N-ethylpiperazine-1-sulfonamide], for which, in test [1], the pEC50 was 5.00 to 6.00. For the same compound, the pIC50 on CDK4/cyclin D1 and on CDK6/cyclin D1 was ≥ 6.70 throughout.
For `CC(=O)c1c(C)c2cnc(Nc3ccc(N4CCN(S(=O)(=O)NC(C)C)CC4)cn3)nc2n(C2CCCC2)c1=O` [Compound A48, 4-(6-((6-Acetyl-8-cyclopentyl-5-methyl-7-oxo-7,8-dihydropyrido[2,3-d]-pyrimidin-2-yl)amino)pyridin-3-yl)-N-isopropylpiperazine-1-sulfonamide], the pEC50 in test [1] was 5.00 to 6.00. Besides, the negative-log IC50 (pIC50) at CDK4/cyclin D1 and at CDK6/cyclin D1 was ≥ 6.70 each time.
As to `CCCNS(=O)(=O)N1CCN(c2ccc(Nc3ncc4c(C)c(C(C)=O)c(=O)n(C5CCCC5)c4n3)nc2)CC1` [Compound A49, 4-(6-((6-Acetyl-8-cyclopentyl-5-methyl-7-oxo-7,8-dihydropyrido[2,3-d]-pyrimidin-2-yl)amino)pyridin-3-yl)-N-propylpiperazine-1-sulfonamide], the pEC50 in test [1] was < 5.00. Besides, the negative logarithm of the IC50 (pIC50) on CDK4/cyclin D1 and at CDK6/cyclin D1 was 6.30 to 6.70 throughout.
